US6455541B1, “Suppression, by 5-lipoxygenase inhibitors, of bone resorption” (Board of Regents, The University of Texas System, priority 1994, dated 2002)
Values joined by “and” are separate entries in the source; they are usually repeats but may differ in a detail not shown here. Equal values may be shown once.

What was measured:
C433 cells = assay: Production of osteoclast-stimulating activity by C433 cells (conditioned medium bioassayed for TRAP in avian osteoclasts); format: cell-based, human; settings: flurbiprofen 10^−5 M; indomethacin 10^−6 M; nordihydroguaiaretic acid 10^−6, 10^−5 or 10^−4 M
Experimental: FIG. 3A, FIG. 3B, FIG. 3C and FIG. 3D. Chemical characterization of activity. FIG. 3A. C433-conditioned medium was treated with ultraviolet-light (UV) for 24 h or placed in a boiling water bath (100° C.) for 15 min and bioassayed. FIG. 3B. amino peptidase M (A), carboxypeptidase (C), or Pronase-CB (P) were incubated in the presence of C433-conditioned medium for 12 h at 37° C. FIG. 3C. […] The resultant conditioned medium was bioassayed for activity. FIG. 3D. […] Conditioned medium was bioassayed for induction of TRAP activity in avian osteoclasts.
C433 cells were grown in 10% fetal bovine serum (Whittaker, Walkersville, Md.) 50% RPMI, 50% McCoys (Flow, McLean, Va.) until a density of 10^4 cells/ml was obtained, at which time the cells were harvested, washed, and placed in serum-free DMEM plus 10^−8 M, 1,25-(OH)2D3 for 48 h before harvest of conditioned medium. […] This conditioned medium was applied to a prewetted C18 Sep-Pak (Millipore, Waters, Milford, Mass.), and bound material was extracted using ethyl acetate. This material was dried under nitrogen and resuspended in water, it acetic acid and analyzed by high pressure measure liquid chromatography (HPLC) (Waters, Milford, Mass.) applied to a C8 semipreparative 25 cm×10 mm reverse phase column (Keystone Scientific, Inc., Bellefonte, Pa.) at 2 ml/min. The gradient was 0-100% methanol, 1% acetic acid over 60 min with 6-ml fractions collected. The fractions were dried under nitrogen, and those fractions to be assayed for osteoclast stimulating activity were stabilized with 20 μl of 10% bovine serum albumin. Fractions to be used for gas chromatography-mass spectrometric analysis were prepared for derivatization.

neonatal mouse calvariae = assay: Neonatal mouse (murine) calvarial assay, 45Ca release; format: cell-based; settings: for 45Ca release, Factor alone (Table II): IL-1 5 × 10^−10M, TNF 2 × 10^−10M, Lymphotoxin 5 × 10^−9M, PTH 4 ng/ml
Experimental: The assay was performed as described by Gowen et al. (1983). Timed pregnant mice were injected with ^45Ca 2 days before parturition. Half-calvaria were removed from the 1-2-day-old pups and preincubated for 24 h in BGJb medium at 37° C. in a humidified atmosphere of 5% CO2 before transfer to fresh media with or without test substances for 48 h. The bones were incubated for a further 72 h and media and bones collected. Bone-resorbing activity was expressed as the percentage of the total ^45Ca released into the medium.

[1] = test system: isolated avian osteoclasts; assay: TRAP activity in isolated avian osteoclasts; format: cell-based, Gallus domesticus; settings: 10^−8 M stimulates suboptimally
Experimental: Avian osteoclasts were isolated from medullary bone of laying White Leghorn hens Gallus domesticus (Pioneer Animal Supply, Kingswheel, Ohio) as described previously by Zambonin-Zallone and Teti (1981). In brief, bone marrow suspensions from the medullary bone of femora were filtered through Nytex cloth (110 μm, t'etko, Elmsford, N.Y.), centrifuged for 5 min at 1200 rpm, and the cell pellet resuspended in 0.2% NaCl for 3 min to lyse erythrocytes. After layering the cells on 100% fetal bovine serum for 1 h, sedimented cells were further filtered through Nytex filters (55 μm). Cells were harvested, resuspended in α-minimal Eagle's medium (GIBCO) containing 10 fetal bovine serum, with penicillin (100 units/ml), streptomycin (100 μg/ml), and Ara-C, to inhibit proliferation of nonosteoclastic cells. Cells were plated in 24- or 48-well plates (Costar, Cambridge, Mass.) at 1×10^4 cells/well and incubated at 37° C. in 10% CO2 humidified air for 48 h, after which they were washed to remove nonadherent cells. When matured osteoclasts were observed experiments were begun and terminated within 48 h.
Osteoclast TRAP activity was measured using fluorescence spectroscopy as described by Chambers et al. (1987) with minor modifications. In brief, media from osteoclast cultures were harvested and stored at −70° C. until ready for assay.
The cells were washed with phosphate-buffered saline and harvested in 0.5 ml of Triton X-100 (0.05%, w/v). Aliquots of media or lysate 30 μl) were incubated with 170 μl of 2 mM methylumbelliferyl phosphate, pH 5.0, in 0.48 M acetate buffer (0.48 M sodium acetate, 0.48 M acetic acid, pH 5.0) and 30 mM tartaric acid. Samples were incubated for 30 min at 37° C. and the reaction terminated with 100 μl of stop solution containing 50 mM glycine, 50 mM EDTA, pH 10.4. Fluorescence was measured at excitation 360 nm and emission 448 nm using a fluorimeter (Fluoroskan, Flow Instruments). Enzyme activity was expressed as micromoles of methylumbelliferyl phosphate hydrolyzed/min/μg of protein and the protein content measured by the technique of Lowry et al. (1951).

isolated rat osteoclasts = assay: Disaggregated rat osteoclast pit formation assay on sperm whale dentine; format: cell-based
Experimental: Quantitation of the effects of isolated osteoclasts on calcified matrices was determined using minor modifications of the disaggregated osteoclast resorption assay as described by Boyde et al. (1984). Sperm whale dentine (0.25×7×7 mm) was prepared using a Buehler low speed diamond saw (Buehler, Lake Bluff, Ill.) followed by sonication (15 min) in several changes of distilled water. Slices were sterilized using ultraviolet light.
Neonatal Sprague-Dawley rats (2-3 days) were sacrificed by decapitation, the femurs and tibias were removed, scraped free of adherent tissue, and trimmed free of the epiphyses. The bones from one litter were combined and quickly minced using a scalpel blade in 2 ml of 199 medium and then vigorously mixed with a pipette in an 8-ml tube, allowed to settle for 10 s, and then 100 μl of the suspension was added to each well for a total of 16 wells in a 48-well microtiter plate containing sperm whale dentine (approximately four neonates are used per 16 wells). The cells were incubated at 37° C. for 30 min at which time the dentine was removed, washed in media, and placed in a fresh 48-well plate containing 250 μl of test medium.
Osteoclasts were stained for TRAP and counted and then pit numbers were counted following toluidine blue (0.1% w/v) staining by light microscopy. The plan area of matrix resorbed was quantitated using a computer-assisted morphometric program on a Bioquant System IV analysis system (R & M Biometrics, Nashville, Tenn.).
Quantitation of the effects of isolated neonatal rat osteoclasts on calcified matrices was determined using minor modifications of the disaggregated osteoclast resorption assay as described by Boyde et al (1984). Briefly rat osteoclasts isolated as described by Chambers et al. (1983) were dispersed on prewetted (AMEM plus 5% FBS) slices of sperm whale dentine. Cultures were performed in 48 well-microtiter plates in humidified air (10% CO2) at 37° C. in αMEM medium (one slice/well in 200 μl medium). Numbers of osteoclasts and resorption lacunae were quantitated as described above for the avian osteoclasts.

[2] = 1,25D3 10^−10M + MK886 2.5 μg/ml
[3] = IL-1 1 × 10^−10M + MK886 2.5 μg/ml

CC(C(=O)O)c1ccc(-c2ccccc2)c(F)c1 (centres unmarked) [Flurbiprofen, flurbiprofen]
effect on production of C433 activity (C433 cells): no significant effects

CCCCC/C=C\C[C@@H](O)/C=C/C=C/C=C\[C@@H](O)CCCC(=O)O [LTB4]
stimulation of bone resorption in neonatal mouse calvariae (in words) (neonatal mouse calvariae): found to stimulate osteoclastic bone resorption | concentration showing statistically significant resorption stimulation (neonatal mouse calvariae; dose response, FIG. 8C): 10^−8 to 10^−6 M

CCCCC/C=C\C\C=C/C=C/C=C/[C@@H](SC[C@H](N)C(=O)NCC(=O)O)[C@@H](O)CCCC(=O)O [LTD4, leukotriene D4]
concentration of optimal stimulation of TRAP activity [1]: 10^−10 M

CCCCC/C=C\C\C=C/C=C/C=C/[C@@H](SC[C@H](N)C(=O)O)[C@@H](O)CCCC(=O)O [LTE4, leukotriene E4]
stimulation of pit formation (isolated rat osteoclasts; 10^−10 M): stimulated

CC(C)c1ccc2c(c1)c(SC(C)(C)C)c(CC(C)(C)C(=O)O)n2Cc1ccc(Cl)cc1 [MK886]
inhibition of 1,25(OH)2 vitamin D3-induced bone resorption (in words) (neonatal mouse calvariae; 1,25(OH)2 vitamin D3 as factor): significantly inhibited | 45Ca release, factor + MK886 (neonatal mouse calvariae; [2]): 32.1% | % Inhibition (neonatal mouse calvariae; [2]): 23.4% | % Inhibition (neonatal mouse calvariae; AAY4 LPS 25 μg/ml + MK886): 20.9% | Ca^45 Release, LPS + MK886 (neonatal mouse calvariae; AAY4 LPS 25 μg/ml + MK886 (concentration not given)): 22.6% | inhibition of LPS-induced bone resorption (in words) (neonatal mouse calvariae; AaY4 LPS and/or WR14 LPS): only mildly inhibited | 45Ca release, factor + MK886 (neonatal mouse calvariae; [3]): 34.9% | % Inhibition (neonatal mouse calvariae; [3]): 23.0% | inhibition of IL-1-induced bone resorption (in words) (neonatal mouse calvariae; IL-1 as factor): significant inhibition of Interleukin-1 induced bone resorption was not noted | 45Ca release, MK886 alone (neonatal mouse calvariae; MK886 2.5 μg/ml, no factor): 9.6% and 14.2% | % Inhibition (neonatal mouse calvariae; WR14 LPS 50 ng/ml + MK886): 8.2% | Ca^45 Release, LPS + MK886 (neonatal mouse calvariae; WR14 LPS 50 ng/ml + MK886 (concentration not given)): 32.8% | inhibition of PTH and PTHrP-induced bone resorption (isolated rat osteoclasts; NDGA 10^−6M, MK886 1 μg/ml, ZM 230,487 10 ng/ml, 20 hours): inhibition of the bone resorption was seen | order of inhibitory effectiveness (isolated rat osteoclasts; PTH and PTHrP-induced bone resorption, NDGA 10^−6M, MK886 1 μg/ml, ZM 230,487 10 ng/ml): ZM230487>MK886>NDGA

COc1ccc2c(c1)c(CC(=O)O)c(C)n2C(=O)c1ccc(Cl)cc1 [indomethacin]
effect on production of C433 activity (C433 cells): no significant effects

IL-1: interleukin-1, bone resorbing factor
45Ca release, factor alone (Table IV) (neonatal mouse calvariae; 1,25D3 10^−10M, IL-1 1 × 10^−10M): 38.9% | 45Ca release, Factor alone (Table II) (neonatal mouse calvariae; 1,25D3 10^−10M): 27.7% and 31.2% | 45Ca release, Factor alone (Table VII) (neonatal mouse calvariae; IL-1β 5 × 10^−10M, TNF 5 × 10^−10M, LPS WR14 50 ng/ml): 32.0%

B1: PTH: parathyroid hormone (protein, UniProt P01270 32-115, looked up)
Parathyroid hormone: SVSEIQLMHNLGKHLNSMERVEWLRKKLQDVHNFVALGAPLAPRDAGSQRPRKKEDNVLVESHEKSLGEADKADVNVLTKAKSQ
modifications: Parathyroid hormone
45Ca release, Factor alone (Table II) (neonatal mouse calvariae; 1,25D3 10^−10M): 37.0% and 39.9% and 29.8% | % Total Calcium Released, PTH alone (Table VI) (neonatal mouse calvariae; PTH 10 ng/ml): 30.5 ± 2.4%

B2: Lymphotoxin: bone resorbing factor (protein, UniProt P01374 35-205, looked up)
Lymphotoxin-alpha: LPGVGLTPSAAQTARQHPKMHLAHSTLKPAAHLIGDPSKQNSLLWRANTDRAFLQDGFSLSNNSLLVPTSGIYFVYSQVVFSGKAYSPKATSSPLYLAHEVQLFSSQYPFHVPLLSSQKMVYPGLQEPWLHSMYHGAAFQLTQGDQLSTHTDGIPHLVLSPSTVFFGAFAL
45Ca release, Factor alone (Table II) (neonatal mouse calvariae; 1,25D3 10^−10M): 35.0% and 42.8%
